From patent publication US9068971B2, “Methods for treating and/or limiting development of diabetes” (BioCrine AB, priority 2012, dated 2015)
Entries after “also recorded” stand apart in the source; their conditions may differ.

Experiments:
β cell CaV channels [1] = test: Perforated whole-cell patch-clamp of Ca2+ currents in RINm5F cells; format: cell-based, rat; conditions: for effect on ApoCIII-induced hyperactivation of β cell CaV channels (enhancement of whole-cell Ca2+ currents): ApoCIII 20 μg/ml overnight with inhibitor cotreatment or after siRNA pretransfection; for whole-cell Ca2+ current density under basal conditions, inhibitor(s) versus vehicle: in the absence of ApoCIII; for whole-cell Ca2+ current density, ApoCIII alone compared with ApoCIII plus inhibitor(s): ApoCIII 20 μg/ml
Procedure: (§1) Islets of Langerhans were isolated from adult male and female mice and dispersed into single β cells. RINm5F cells at about 70% confluency were trypsinized. The resultant suspension of cells was seeded into Petri dishes or 12-well plates. The cells were cultivated in RPMI 1640 medium supplemented with 10% fetal bovine serum, 2 mM L-glutamine, and 100 U/100 μg/ml penicillin/streptomycin (Invitrogen, Carlsbad, Calif.) and maintained at 37° C. in a humidified 5% CO2 incubator. They were grown overnight and then subjected to siRNA transfection. For patch-clamp analysis, cells underwent overnight treatment with ApoCIII, the PKA inhibitor H-89 (Calbiochem, La Jolla, Calif.), the PKC inhibitor calphostin C (Calbiochem), the Src kinase inhibitor PP2 (Calbiochem) and the CaV1 channel blocker nimodipine (Calbiochem) in RPMI medium at final concentrations of 20 μg/ml, 0.5 μM, 0.1 μM, 0.1 μM and 5 μM, respectively. ApoCIII was dissolved in 0.1% triflouroacetic acid (TFA) to make a stock solution of 1 mg/ml, whereas H-89, calphostin C, PP2 and nimodipine were dissolved in dimethyl sulfoxide (DMSO) to form stock solutions of 5 mM, 1 mM, 1 mM and 10 mM, respectively. 0.002% TFA and/or 0.03% DMSO were used as vehicle controls.
Two pairs of 21-mer siRNA duplexes targeting the rat β1 integrin (β1 integrin siRNA #1, ID127971 and (31 integrin siRNA #2, ID127972) and SRBI (ID128929) were designed and chemically synthesized by Applied Biosystems/Ambion (Austin, Tex.). Their sequences were subjected to BLAST search to ensure their specificity. Silencer® Select Negative Control siRNA (4390843), not targeting any gene product, and Silencer® Select GAPDH Positive Control siRNA (4390849), efficiently silencing GAPDH in human, mouse, and rat cells, were purchased from Applied Biosystems/Ambion (Austin, Tex.). RINm5F cells were reversely transfected with Lipofectamine™ RNAiMAX. Briefly, negative control siRNA, β1 integrin siRNA #1, β1 integrin siRNA #2 or SRBI siRNA was mixed with Lipofectamine™ RNAiMAX followed by 20-min incubation at room temperature. Subsequently, cells were added to the siRNA/Lipofectamine™ RNAiMAX mixtures followed by gentle agitation and kept at 37° C. in a humidified 5% CO2 incubator. After 72 h, the transfected cells were grown to about 70% confluency and subjected to immunoblot assay or different treatments.
(§2) Mouse islet cells and RINm5F cells following different treatments were subjected to single channel and whole-cell patch-clamp measurements. Cell-attached and perforated whole-cell patch-clamp configurations were employed. Electrodes were made from borosilicate glass capillaries, fire-polished and coated with Sylgard close to their tips. Some of them were filled with a solution containing (in mM) 110 BaCl2, 10 TEA-Cl, and 5 HEPES (pH 7.4 with Ba(OH)2) for single channel measurements. Others were filled with a solution composed of (in mM) 76 Cs2SO4, 1 MgCl2, 10 KCl, 10 NaCl, and 5 HEPES (pH 7.35 with CsOH), as well as amphotericin B (0.24 mg/ml) for whole-cell current recordings. Electrode resistance ranged between 4 and 6 MΩ when they were filled with electrode solutions and immersed in bath solutions. The electrode offset potential was corrected in bath solutions prior to gigaseal formation. Single-channel recordings were performed with cells bathed in a depolarizing external recording solution, containing (in mM) 125 KCl, 30 KOH, 10 EGTA, 2 CaCl2, 1 MgCl2, and 5 HEPES-KOH (pH 7.15). This solution was used to bring the intracellular potential to 0 mV. For perforated whole-cell current measurements, the cells were bathed in a solution containing (in mM) 138 NaCl, 5.6 KCl, 1.2 MgCl2, 10 CaCl2, 5 HEPES (pH 7.4). Single channel and whole-cell currents were recorded with an Axopatch 200B amplifier (Molecular Devices, Foster City, Calif.) and an EPC-9 patch clamp amplifier (HEKA Elektronik, Lambrecht/Pfalz, Germany), respectively, at room temperature (about 22° C.). […]

SRBI [2] = target: T1, SRBI (Homo sapiens, UniProt Q8WTV0); conditions: cited from earlier work
T1 sequence (Q8WTV0 1-509 isoform Q8WTV0-2): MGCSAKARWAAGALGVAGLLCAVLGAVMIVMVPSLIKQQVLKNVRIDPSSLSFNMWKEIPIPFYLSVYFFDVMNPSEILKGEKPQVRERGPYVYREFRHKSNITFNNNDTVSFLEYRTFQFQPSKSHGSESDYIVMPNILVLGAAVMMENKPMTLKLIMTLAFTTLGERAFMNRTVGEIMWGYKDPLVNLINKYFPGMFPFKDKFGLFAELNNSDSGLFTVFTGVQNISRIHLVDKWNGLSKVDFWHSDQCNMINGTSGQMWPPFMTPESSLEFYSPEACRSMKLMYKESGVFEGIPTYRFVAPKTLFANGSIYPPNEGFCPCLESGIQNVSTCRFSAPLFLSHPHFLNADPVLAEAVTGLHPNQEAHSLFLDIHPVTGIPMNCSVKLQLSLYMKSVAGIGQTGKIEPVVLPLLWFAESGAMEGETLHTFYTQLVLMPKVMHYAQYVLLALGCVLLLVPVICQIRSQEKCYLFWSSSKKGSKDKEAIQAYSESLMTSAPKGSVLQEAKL

β cell CaV channels [3] = conditions: mouse islet β cell; previous work; cited from earlier work
CaV1.3 = test: Immunoblot of CaV1.3 subunits in RINm5F cell homogenates; format: cell-based, rat; conditions: overnight ApoCIII
Procedure: (§3) Islets of Langerhans were isolated from adult male and female mice and dispersed into single β cells. RINm5F cells at about 70% confluency were trypsinized. The resultant suspension of cells was seeded into Petri dishes or 12-well plates. The cells were cultivated in RPMI 1640 medium supplemented with 10% fetal bovine serum, 2 mM L-glutamine, and 100 U/100 μg/ml penicillin/streptomycin (Invitrogen, Carlsbad, Calif.) and maintained at 37° C. in a humidified 5% CO2 incubator. They were grown overnight and then subjected to siRNA transfection. […]
(§4) RINm5F cells following different treatments were lysed in a lysis buffer (pH 7.5) consisting of 50 mM HEPES, 150 mM NaCl, 1 mM EGTA, 1 mM EDTA, 10% glycerol, 1% triton X-100, 1 mM PMSF and a protease inhibitor cocktail (Roche Diagnostics, Mannheim, Germany). […] The protein concentration of the resulting samples was determined with Bio-Rad protein assay reagent (Bio-Rad, Hercules, Calif.). […]
(§5) All data are presented as mean±SEM. Statistical significance was determined by one-way ANOVA, followed by least significant difference (LSD) test. […]

CaV1.2 = test: Immunoblot of CaV1.2 subunits in RINm5F cell homogenates; format: cell-based, rat; conditions: overnight ApoCIII
Procedure: as §3, §4, §5

CaV1 channels [4] = test: Cell-attached single channel patch-clamp of unitary CaV1 channel currents in mouse islet β cells; format: cell-based; conditions: ApoCIII 20 μg/ml overnight versus control vehicle
Procedure: as §1
as §2, with “For perforated whole-cell current measurements, the cells were bathed in a solution containing (in mM) 138 NaCl, 5.6 KCl, 1.2 MgCl2, 10 CaCl2, 5 HEPES (pH 7.4).” left out
as §5

CaV1 channels [5] = test: Cell-attached single channel patch-clamp of unitary CaV1 channel currents in RINm5F cells; format: cell-based, rat; conditions: ApoCIII 20 μg/ml overnight versus vehicle solution
Procedure: as §1
as §2, with “For perforated whole-cell current measurements, the cells were bathed in a solution containing (in mM) 138 NaCl, 5.6 KCl, 1.2 MgCl2, 10 CaCl2, 5 HEPES (pH 7.4).” left out
as §5

SRBI [6] = conditions: cited from earlier work
[7] = overnight, H-89 0.5 μM, calphostin C 0.1 μM, PP2 0.1 μM

Compound: O=S(=O)(NCCNC/C=C/c1ccc(Br)cc1)c1cccc2cnccc12 [H-89]
- effect on ApoCIII-induced hyperactivation of β cell CaV channels (enhancement of whole-cell Ca2+ currents) (β cell CaV channels [1]): marginally reduced
- whole-cell Ca2+ current density under basal conditions, inhibitor(s) versus vehicle (β cell CaV channels [1]): did not significantly influence
- whole-cell Ca2+ current density, ApoCIII alone compared with ApoCIII plus inhibitor(s) (β cell CaV channels [1]; [7]): did not significantly differ
- whole-cell Ca2+ current density, ApoCIII plus inhibitor(s) compared with control cells (β cell CaV channels [1]; overnight, nimodipine 5 μM (control = Nim alone), H-89 0.5 μM, calphostin C 0.1 μM, PP2 0.1 μM): did not significantly differ

Compound: calphostin C
- effect on ApoCIII-induced hyperactivation of β cell CaV channels (enhancement of whole-cell Ca2+ currents) (β cell CaV channels [1]): does not affect
- whole-cell Ca2+ current density under basal conditions, inhibitor(s) versus vehicle (β cell CaV channels [1]): similar
- whole-cell Ca2+ current density, ApoCIII alone compared with ApoCIII plus inhibitor(s) (β cell CaV channels [1]; [7]): no difference
- whole-cell Ca2+ current density, ApoCIII/CalpC versus vehicle-treated control cells (β cell CaV channels [1]; voltage range from 20 to 50 mV): increased significantly

Compound: CC(C)(C)OC(=O)N1CCN(c2ccc(NC(=O)c3cc([N+](=O)[O-])ccc3Cl)cc2)CC1 [R-138329, N-[4-(4-tert-Butoxycarbonylpiperazin-1-yl)phenyl]-(2-chloro-5-nitrophenyl)carboxamide]
- SRBI receptor activity (SRBI [2]): block

Compound: ApoCIII: protein comprising the amino acid sequence shown in SEQ ID NO:2 (Human), SEQ ID NO:4 (Rat) or SEQ ID NO:6 (Macaque)
- whole-cell Ca2+ currents after ApoCIII incubation (β cell CaV channels [3]): significantly enhances
- relative abundance of CaV1.3 subunits, ApoCIII versus vehicle incubation (CaV1.3): no significant difference
- whole-cell Ca2+ current density, ApoCIII group versus control group (β cell CaV channels [1]; no voltage range printed (FIG. 4d)): Significantly higher
- whole-cell Ca2+ current density, ApoCIII-treated versus vehicle-treated control cells (β cell CaV channels [1]; voltage range 10-50 mV): significantly higher; also recorded: increased significantly; also recorded: significantly elevated; also recorded: significantly increased
- whole-cell Ca2+ current density, ApoCIII group versus control group (β cell CaV channels [1]; voltage range from 10 to 30 mV): significantly higher
- relative abundance of CaV1.2 subunits, ApoCIII versus vehicle incubation (CaV1.2): no significant difference
- mean closed time of unitary CaV1 channels (CaV1 channels [4]): significantly shorter
- mean open time of unitary CaV1 channels (CaV1 channels [4]): significantly greater
- open probability of unitary CaV1 channels (CaV1 channels [4]): significantly greater
- average number of unitary CaV1 channels (CaV1 channels [4]; plasma membrane patches): significantly greater
- channel number of CaV1 channels (CaV1 channels [5]): significantly increased
- mean closed time of CaV1 channels (CaV1 channels [5]): shortened
- mean open time of CaV1 channels (CaV1 channels [5]): prolonged
- open probability of CaV1 channels (CaV1 channels [5]): elevated

Compound: interferon alpha
- SRBI expression (SRBI [6]): inhibit

Compound: CC(C)(C)n1nc(-c2ccc(Cl)cc2)c2c(N)ncnc21 [PP2]
- effect on ApoCIII-induced hyperactivation of β cell CaV channels (enhancement of whole-cell Ca2+ currents) (β cell CaV channels [1]): tendency to decrease
- whole-cell Ca2+ current density under basal conditions, inhibitor(s) versus vehicle (β cell CaV channels [1]): similar
- whole-cell Ca2+ currents, ApoCIII and PP2 cotreatment versus vehicle-treated control cells (β cell CaV channels [1]; voltage range 20-40 mV): significantly larger
